Test results: PubChem BioAssay (NCI)
Where “and” joins values, the source holds several entries; their conditions need not be identical. Identical values can stand only once.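 96-well plates; 48 h exposure; 5 concentrations. Endpoints by linear interpolation between flanking doses. Not reached: highest tested concentration assigned. GI50: concentration for 50% inhibition of growth. Definition used: TGI = concentration required for complete inhibition of growth.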

Experiments:
Test in all cases: NCI anticancer screen, dose series, 48 h
[1] = tested on: TK-10 renal
[2] = tested on: RXF 393 renal
[3] = tested on: MALME-3M melanoma
[4] = tested on: KM12 colon
[5] = tested on: A549 NSCLC
[6] = tested on: SR leukemia
[7] = tested on: HCT-116 colon
[8] = tested on: HCC-2998 colon
[9] = tested on: A498 renal
[10] = tested on: M14 melanoma

Row | Structure (SMILES) | GI50 [1] | TGI [1] | GI50 [2] | TGI [2] | GI50 [3] | TGI [3] | GI50 [4] | TGI [4] | GI50 [5] | TGI [5] | GI50 [6] | TGI [6] | GI50 [7] | TGI [7] | GI50 [8] | TGI [8] | GI50 [9] | TGI [9] | GI50 [10] | TGI [10]
1 | Clc1ccc(COC(Cn2ccnc2)c2ccc(Cl)cc2Cl)cc1 (configuration not stated) | 2.68 µM | 7.15 µM and 29 µM and 23.9 µM | 2.01 µM | 6.78 µM and 31.7 µM and 29.1 µM | 2.22 µM | 6.36 µM and 28.2 µM and 31.1 µM | 3.18 µM | 11 µM and 29.5 µM and 28.4 µM | 2.78 µM | 12.1 µM and 27 µM and 23.9 µM | 2.79 µM | 10.6 µM and 21.6 µM and 14.7 µM | 1.42 µM | 3.1 µM and 21.1 µM and 20.2 µM | 2.72 µM | 10.5 µM and 29.6 µM and 30 µM | 1.23 µM | 8.22 µM and 27.8 µM and 24.2 µM | 2.92 µM | 10.2 µM and 29.8 µM and 26.2 µM
2 | O=C(CCc1nc(=S)[nH][nH]1)NC12CC3CC(CC(C3)C1)C2 |  | > 100 µM |  | > 100 µM |  | > 100 µM |  | > 100 µM |  | > 100 µM |  | > 100 µM |  | > 100 µM |  | > 100 µM |  | > 100 µM |  | > 100 µM
3 | O=C(Nc1ccc(OC(F)(F)F)cc1)c1sccc1NCc1ccnc2ccccc12 | 4.87 µM | 98.6 µM | 1.8 µM | 6.96 µM | 1.85 µM | 14.6 µM | 3.85 µM | > 56.9 µM | 4.11 µM | > 100 µM | 4.25 µM | > 100 µM | 2.12 µM | > 100 µM | 4.82 µM | > 100 µM | 3 µM | > 40.9 µM | 2.74 µM | 30.6 µM
4 | CC1(C)CCC(C)(C)c2cc(C(=O)Nc3ccc(C(=O)O)cc3)ccc21 |  | > 73.3 µM |  | > 42 µM |  | > 100 µM |  | > 61.4 µM |  | > 75.1 µM |  | > 81.9 µM |  | 37.4 µM |  | 37.2 µM |  | > 100 µM |  | 51.1 µM
5 | COC1/C=C/OC2(C)Oc3c(C)c(O)c4c(c3C2=O)C(=O)C=C(NC(=O)/C(C)=C\C=C\C(C)C(OC=O)C(C)C(O)C(C)C(OC(C)=O)C1C)C4=O (configuration not stated) |  | 30.4 µM |  | 19 µM |  | 28.7 µM |  | 45.9 µM |  | 39.7 µM |  | 8.08 µM |  | 14.1 µM |  | 35.4 µM |  | 41.3 µM |  | 19.5 µM
6 | COc1cc2cc(Oc3ccc(NC(=O)c4cccc(C(F)(F)F)c4)cc3)c(C)nc2cc1OC | 5.18 µM | > 100 µM | 6.07 µM | > 100 µM | > 100 µM | > 100 µM | 4.03 µM | > 100 µM | 4.28 µM | > 100 µM | 3.25 µM | > 100 µM | 3.22 µM | > 100 µM | 8.03 µM | > 100 µM | 1.78 µM | 65 µM | 4.02 µM | > 100 µM
7 | CSc1ccc(/C=C2\CNC/C(=C\c3ccc(SC)cc3)C2=O)cc1 |  | > 165 µM | 74 µM and 10.8 µg/mL | 81.1 µM and 34.2 µg/mL | 150 mg/L | > 371 µM and 150 µg/mL | 150 mg/L | > 371 µM and 150 µg/mL | 150 mg/L | > 371 µM and 150 µg/mL | 23.3 µM | 67.8 µM and > 190 µM | 31.4 mg/L | > 371 µM and 150 µg/mL | > 371 µM and 150 µg/mL | > 371 µM and 150 µg/mL | 35.2 µM and 33.2 µg/mL | 159 µM and 118 µg/mL |  | > 371 µM
8 | COC(=O)c1nc(NN)[nH]c(=O)c1CCCCCc1c(C(=O)OC)[nH]c(NN)cc1=O |  | > 100 µM |  | > 100 µM |  | > 100 µM |  | > 100 µM |  | > 100 µM |  | > 58.9 µM |  | > 100 µM |  | > 100 µM |  | > 100 µM |  | > 100 µM
9 | C=C(C)C1CC2C(C)=C(OC(C)=O)C1n1c(=O)c3cc4ccccc4cc3c(=O)n12 (configuration not stated) |  | > 100 µM |  | > 90.9 µM |  | > 100 µM |  | > 100 µM |  | > 100 µM |  | > 93 µM |  | > 100 µM |  | > 100 µM |  | > 100 µM |  | > 100 µM
10 | CC(C)(C)OC(=O)NCC(C#N)CNC(=O)OC(C)(C)C |  | > 100 µM |  | > 100 µM |  | > 100 µM |  | > 100 µM |  | > 100 µM |  | > 100 µM |  | > 100 µM |  | > 100 µM |  | > 100 µM |  | > 100 µM
11 | CNC(=O)Nc1ccc(-c2nc(N3CCOCC3)nc3c2cnn3C2CCOCC2)cc1 | 0.172 µM | 1.47 µM | 0.14 µM | 0.812 µM | 0.0509 µM | 0.44 µM | 0.384 µM | > 100 µM | 0.204 µM | 2.71 µM | 0.239 µM | > 19.8 µM | 0.422 µM | > 100 µM | 0.307 µM | > 100 µM | < 0.0218 µM | 0.148 µM | 0.233 µM | 
12 | Cc1cc2c(cc1C)NC1=C(N2)OC(c2c[nH]c3ccc(COc4ccccc4)cc23)C1=O (configuration not stated) |  | > 100 µM |  | > 100 µM |  | > 100 µM |  | > 100 µM |  | > 100 µM |  | > 100 µM |  | > 100 µM |  | 98.5 µM |  | > 100 µM |  | > 100 µM
13 | Cc1cc(N(CCNc2ccnc3cc(Cl)ccc23)Cc2ccc3c(c2)OCO3)nc(N2CCN(C)CC2)n1 | 1.81 µM | 3.61 µM | 1.43 µM | 3.17 µM | 1.77 µM | 3.36 µM | 4.42 µM | 17.7 µM | 3.51 µM | 12.8 µM | 1.5 µM | 4.43 µM | 1.41 µM | 4.7 µM | 2.12 µM | 4.88 µM | 2.43 µM | 8.85 µM | 1.89 µM | 3.55 µM
14 | COc1cc(-c2oc3ccccc3c(=O)c2O)cc(OC)c1OC |  | > 88.5 µM |  | 42.6 µM |  | > 100 µM |  | > 100 µM |  | > 100 µM |  | > 24.8 µM |  | > 100 µM |  | > 100 µM |  | > 100 µM |  | > 100 µM
15 | CN1C2CC(C#N)C1C=CC2=O (configuration not stated) | 40.5 µM and > 100 µM | > 100 µM | 16.7 µM and > 100 µM | 36.1 µM and > 100 µM | 14.8 µM and 96.6 µM | 31.4 µM and > 100 µM | 16.9 µM and 88.2 µM | 33.5 µM and > 100 µM | 18.1 µM and > 100 µM | 46 µM and > 100 µM | 24.2 µM and 86.1 µM | > 100 µM | 13.4 µM and 43.8 µM | 27.2 µM and > 100 µM | 19.5 µM and > 100 µM | 51.8 µM and > 100 µM | 17.5 µM and > 100 µM | 35 µM and > 100 µM | 15.9 µM and > 100 µM | 30.7 µM and > 100 µM
